These are literature values, as cited in US12371983B2, “Large-scale carbon-mineralization through oxalatization” (THE CURATORS OF THE UNIVERSITY OF MISSOURI, priority 2021, dated 2025).

≈ marks a conversion by molar mass, not a printed value.

For the data set the following is noted: at 20° C. and one atmospheric pressure.

Regarding `O=C=O` [CO2], the solubility in water was about 1800 µg/mL (≈ 40.9 mM).
